Source: patent US5234934A, “Aminopropanol derivatives, process for their preparation and pharmaceutical compositions comprising the same” (priority 1989, dated 1993)
Where two headings read alike, the source gives them in different places.

How the values were obtained:
[1] = acute toxicity test in mice (Litchfield and Wilcoxon); type: in vivo, mouse; conditions: mouse, in vivo, po., 14 days observation
Description: The test for acute toxicity was carried out by using 10 white mice (CFLP strain) (both male and female), weighing 18 to 22 g in each dose group. The compounds of the invention were administered orally in a dose of 20 ml/kg.
The animals were kept in a plastic box on wood chips in a room of room temperature. They could consume tap water and standard mouse feed ad libitum. The toxicity data were determined by the method of Litchfield and Wilcoxon (Litchfield, J. T., Wilcoxon, F. W.: J. Pharmacol. Exp. Ther. 96, 99/1949/).

gastric acid secretion = gastric acid secretion test (Shay); type: in vivo, rat; conditions: Rattus norvegicus, read-out: Inhibition of free acid, %
Description: The test was carried out according to Shay's operational method. […] On the day of the test the pylorus of the animals was bound under ether narcosis. The test compounds were administered orally 3 hours before the operation. The animals of the control group were administered with the carrier only. 4 hours after the operation the stomach was removed, the content thereof was centrifuged and the amount of free acid was determined by titration with 0.1N sodium hydroxide.

[2] = test system: peristalty of stomach and intestines; assay: effect exerted on the peristalty of stomach and intestines (Stickney et al., carbon suspension); type: in vivo, mouse; conditions: for ED50: Mus musculus, read-out: ED50 (antiperistaltic); for TI (therapeutic index): antiperistaltic
Description: The antiperistaltic effect of the compounds was examined by the method of Stickney et al. on white mice of both sexes, weighing 20 to 25 g. The compounds to be tested were administered per os 60 minutes before the addition of carbon suspension to groups containing 10 mice each. The animals of the control groups were treated at the same time and in the same manner with the carrier only. The mice were killed 10 minutes after the addition of the carbon suspension, and the whole length of the intestines as well as the length of the intestines filled with carbon suspension were measured.

hexobarbital narcosis = assay: narcosis potentiating effect (hexobarbital sleeping time); conditions: for ED50: Mus musculus, po, read-out: ED50 (narcosis potentiation); for TI (therapeutic index): narcosis potentiation, mice, po.
Description: The narcosis potentiating effect of the compounds of the invention were examined on white mice, with 6 animals in each group. The mice were administered orally with the compounds of the invention, then both the control and the test groups were intravenously added 40 mg/kg of hexobarbital in order to make the mice sleep (Kaergard et al.).

[3] = test system: aconitine-induced ECG alterations; assay: animal or person; type: in vivo, rat; conditions: Rattus norvegicus, iv, read-out: Effect % (antiarrhythmic)
Description: The test was carried out by using the modified method of Marmo et al. on rats weighing 160 to 200 g. The animals were narcotised by ethyl uretane (1.2 g/kg ip.). Aconitin was administered intravenously in a dose of 75 /ug/kg in the form of a bolus injection. The ECG alterations were monitored in standard II lead by 5 minutes after the administration of aconitine. The observed alterations were classified into classes 0 to 5. The compounds of the invention were administered 2 minutes or 60 minutes before the parenteral or oral administration of aconitine, respectively. […]
class 1: sometimes an extrasystole occurs class 2: each second one is an extrasystole class 3: extrasystoles in groups class 4: each one is an extrasystole class 5: fibrillation, death
(Marmo, E., DiGiacomo, S., Imperatore, A.: Arzeimittel-Forschung 20, 12/1970/)

nervus ischiadicus = assay: local analgesic effect (Truant d'Amato's method); type: in vivo; conditions: for EC50 %: 0.2 ml injected around nervus ischiadicus; for Duration of effect: in a conc. of 0.5%
Description: The tests were carried out according to Truant d'Amato's method. 0.2 ml of test material was injected around the nervus ischiadicus in the middle of femur with a needle of 1 cm length. The criterion of analgesic effect was the lack of the motoric control of foot muscles.
The duration of effect was registered and the 50 percentile effective concentration (EC50) was calculated on the basis of the dose-effect curve. Lidocain was used as comparative material. (Truant, A. P., D'Amato, D.: Acta Chir Scand. 116, 351/1958/)

`CN1CCN(CC(O)CO/N=C2\CCCC\C2=C/c2ccccc2)CC1` (racemic) [Example 4, R,S-2-(E)-Phenylmethylene-1-(E)-[3-(4-methyl-1-piperazinyl)-2'-hydroxy-propoxyimino]-cyclohexane] showed an LD50 at 336 h [1] of 1800 mg/kg and an inhibition in vivo at 200 mg/kg (gastric acid secretion; dose 200 mg/kg po., rats) of 77%.

In the case of `OC(CO/N=C1\CCCC\C1=C/c1ccccc1)CN1CCN(c2ccccc2)CC1` (racemic) [Example 5, R,S-2-(E)-Phenylmethylene-1-(E)-[3-(4-phenyl-1-piperazinyl)-2-hydroxy-propoxyimino]-cyclohexane], the LD50 at 336 h [1] is reported as > 1000 mg/kg, the ED50 ([2]; po., mice) is reported as 70 mg/kg and the “TI (therapeutic index)” value ([2]; po., mice) is reported as 14.

In the case of `OC(CO/N=C1\CCCC\C1=C/c1ccccc1)CN1CCN(Cc2ccccc2)CC1` (racemic) [Example 6, R,S-2-(E)-Phenylmethylene-1-(E)-[3-(4-phenylmethyl-1-piperazinyl)-2-hydroxy-propoxyimino]-cyclohexane], the LD50 at 336 h [1] is reported as > 1000 mg/kg, the ED50 ([2]; po., mice) is reported as 140 mg/kg and the “TI (therapeutic index)” value ([2]; po., mice) is reported as 7.

In the case of `OC(CO/N=C1\CCCC\C1=C/c1ccccc1)CN1CCN(c2ccc(Cl)cc2)CC1` (racemic) [Example 12, R,S-2-(E)-Phenylmethylene-1-(E)-{[4-(4-chlorophenyl)-1-piperazinyl]-2-hydroxy-propoxyimino}-cyclohexane], the LD50 at 336 h [1] is reported as 1000 mg/kg, the ED50 ([2]; po., mice) is reported as ~200 mg/kg and the “TI (therapeutic index)” value ([2]; po., mice) is reported as “about 5”.

For `OCCN1CCN(CC(O)CO/N=C2\CCCC\C2=C/c2ccccc2)CC1` (racemic) [Example 13], the LD50 at 336 h [1] was > 1000 mg/kg and the inhibition in vivo at 200 mg/kg (gastric acid secretion; dose 200 mg/kg po., rats) was 74%.

With `OC(CO/N=C1\CCCCC\C1=C/c1ccccc1)CN1CCOCC1` (racemic) [Example 15, R,S-2-(E)-Phenylmethylene-1-(E)-(3-morpholino-2-hydroxypropoxyimino)-cycloheptane] the LD50 at 336 h [1] was > 1000 mg/kg, the ED50 ([2]; po., mice) was 140 mg/kg and the “TI (therapeutic index)” value ([2]; po., mice) was 7.

For `OC(CO/N=C1\CCCCCC\C1=C/c1ccccc1)CN1CCOCC1` (racemic) [Example 18, R,S-2-(E)-Phenylmethylene-1-(E)-(3-morpholino-2-hydroxy-propoxyimino)-cyclooctane], the LD50 at 336 h [1] was > 1000 mg/kg, the ED50 (hexobarbital narcosis) was 25 mg/kg and the “TI (therapeutic index)” value (hexobarbital narcosis) was > 40. The inhibition in vivo at 200 mg/kg (gastric acid secretion; dose 200 mg/kg po., rats) was 68% and the change in vivo at 4 mg/kg [3] was -50%.

For `CN1CCN(CC(O)CO/N=C2\CCCCCC\C2=C/c2ccccc2)CC1` (racemic) [Example 20, R,S-2-(E)-Phenylmethylene-1-(E)-[3-(4-methyl-1-piperazinyl)-2-hydroxy-propoxyimino]-cyclooctane], the LD50 at 336 h [1] was > 1000 mg/kg, the ED50 (hexobarbital narcosis) was 21.5 mg/kg and the “TI (therapeutic index)” value (hexobarbital narcosis) was > 46.5. For the same compound, the ED50 ([2]; po., mice) was ~100 mg/kg and the “TI (therapeutic index)” value ([2]; po., mice) was “about 10”.

`CC(C)N(CC(O)CO/N=C1\CCC\C1=C/c1ccccc1)C(C)C` (racemic) [Example 21, R,S-2-(E)-Phenylmethylene-{3-[bis-(1-methylethyl)-amino]-2-hydroxy-propoxyimino}-cyclopentane] gave an LD50 at 336 h [1] of 700 mg/kg, a change in vivo at 4 mg/kg [3] of -46% and an EC50 % (nervus ischiadicus) of 0.24%. It also gave a Duration of effect (nervus ischiadicus) of 89 min.

In the case of `CCCCNCC(O)CO/N=C1\CCCC\C1=C/c1ccc(Cl)cc1` (racemic) [Example 29, R,S-2-(E)-(4-Chlorophenyl-methylene)-1-(E)-(3-butylamino-2-hydroxy-propoxyimino)-cyclohexane], the LD50 at 336 h [1] is reported as 1300 mg/kg, the ED50 (hexobarbital narcosis) is reported as 30 mg/kg and the “TI (therapeutic index)” value (hexobarbital narcosis) is reported as 43. It also gave an inhibition in vivo at 260 mg/kg (gastric acid secretion; dose 260 mg/kg po., rats) of 87%.

With `CC(C)CNCC(O)CO/N=C1\CCCC\C1=C/c1ccc(Cl)cc1` (racemic) [Example 30, R,S-2-(E)-(4-Chlorophenyl-methylene)-1-(E)-[3-(2-methylpropylamino)-2-hydroxy-propoxyimino]-cyclohexane] the LD50 at 336 h [1] was 1100 mg/kg, the ED50 ([2]; po., mice) was 130 mg/kg and the “TI (therapeutic index)” value ([2]; po., mice) was 8.

For `C#CC(C)(C)NCC(O)CO/N=C1\CCCC\C1=C/c1ccc(Cl)cc1` (racemic) [Example 32, R,S-2-(E)-(4-Chlorophenyl-methylene)-1-(E)-[3-(1,1-dimethylpropin-2-yl-amino)-2-hydroxy-propoxyimino]-cyclohexane], the LD50 at 336 h [1] was > 2000 mg/kg, the ED50 (hexobarbital narcosis) was 50 mg/kg and the “TI (therapeutic index)” value (hexobarbital narcosis) was > 40. It also gave an inhibition in vivo at 400 mg/kg (gastric acid secretion; dose 400 mg/kg po., rats) of 62%.

For `CCCCNCC(O)CO/N=C1\CCCC\C1=C/c1ccc(Cl)c(Cl)c1` (racemic) [Example 33, R,S-2-(E)-(3,4-Dichlorophenyl-methyl)-1-(E)-(3-butylamino-2-hydroxy-propoxyimino)-cyclohexane], the LD50 at 336 h [1] was > 1000 mg/kg and the inhibition in vivo at 200 mg/kg (gastric acid secretion; dose 200 mg/kg po., rats) was 100%.

For `COc1ccccc1/C=C1\CCCC\C1=N/OCC(O)CN1CCN(c2ccccc2OC)CC1` (racemic) [Example 38, R,S-2-(E)-(2-Methoxyphenyl-methylene)-1-(E)-{[4-(2-methoxyphenyl)-1-piperazinyl]-2-hydroxy-propoxyimino}-cyclohexane], the LD50 at 336 h [1] was > 1000 mg/kg, the ED50 (hexobarbital narcosis) was 61 mg/kg and the “TI (therapeutic index)” value (hexobarbital narcosis) was 16. The ED50 ([2]; po., mice) was 23 mg/kg and the “TI (therapeutic index)” value ([2]; po., mice) was 44.

With `COc1ccc(/C=C2\CCCC\C2=N/OCC(O)CNC2CC2)cc1` (racemic) [Example 40, R,S-2-(E)-(4-Methoxyphenyl-methylene)-1-(E)-(3-cyclopropylamino-2-hydroxy-propoxyimino)-cyclohexane] the LD50 at 336 h [1] was 800 mg/kg, the inhibition in vivo at 160 mg/kg (gastric acid secretion; dose 160 mg/kg po., rats) was 57% and the EC50 % (nervus ischiadicus) was 0.19%. It also gave a Duration of effect (nervus ischiadicus) of 68 min.

In the case of `COc1ccc(/C=C2\CCCC\C2=N/OCC(O)CNCCCN(C)C)cc1` (racemic) [Example 41, R,S-2-(E)-(4-Methoxyphenyl-methylene)-1-(E)-[3-(3-dimethylamino-1-propylamino)-2-hydroxy-propoxyimino]-cyclohexane], the LD50 at 336 h [1] is reported as > 1000 mg/kg and the inhibition in vivo at 200 mg/kg (gastric acid secretion; dose 200 mg/kg po., rats) is reported as 67%.

With `CN(CC(O)CO/N=C1\CCCC\C1=C/c1ccc(Cl)cc1)C1CCCCC1` (racemic) [Example 45, R,S-2-(E)-(4-Chlorophenyl-methylene)-1-(E)-[3'-(N-methyl-N-cyclohexylamino)-2-hydroxy-propoxyimino]-cyclohexane] the LD50 at 336 h [1] was > 1000 mg/kg and the inhibition in vivo at 200 mg/kg (gastric acid secretion; dose 200 mg/kg po., rats) was 100%.

For `CC(C)NCC(O)CO/N=C1\CCCCCC\C1=C/c1ccccc1` (racemic) [Example 48, R,S-2-(E)-Phenylmethylene-1-(E)-[3-(1-methylethyl-amino)-2-hydroxypropxyimino]-cyclooctane], the LD50 at 336 h [1] was > 1000 mg/kg, the inhibition in vivo at 100 mg/kg (gastric acid secretion; dose 100 mg/kg po., rats) was 75% and the change in vivo at 4 mg/kg [3] was -43.5%. The EC50 % (nervus ischiadicus) was 0.31% and the Duration of effect (nervus ischiadicus) was 122 min.

`CN/C(=N/CCSCc1nc[nH]c1C)NC#N` [Cimetidine, reference compound] gave an inhibition in vivo at 100 mg/kg (gastric acid secretion; po) of 66% and an inhibition in vivo at 200 mg/kg (gastric acid secretion; po) of 91%.

`CCN(CC)CC(=O)Nc1c(C)cccc1C` [Lidocain, reference compound] showed an EC50 % (nervus ischiadicus) of 0.19% and a Duration of effect (nervus ischiadicus) of 34 min.

In the case of `COc1ccc(Cc2nccc3cc(OC)c(OC)cc23)cc1OC` [Papaverine, reference compound], the “inhibition (antiperistaltic)” value ([2]; 280 mg/kg po., mice) is reported as 36% and the ED50 ([2]; po) is reported as > 280 mg/kg.

In the case of `COc1cc(C(=S)N2CCOCC2)cc(OC)c1OC` [Trithiozine, reference compound], the inhibition in vivo at 100 mg/kg (gastric acid secretion; po) is reported as 30% and the inhibition in vivo at 400 mg/kg (gastric acid secretion; po) is reported as 63%.
